Measured values from ChEMBL document CHEMBL1147790, “Synthetic analogues of the manzamenones and plakoridines which inhibit DNA polymerase” (Bioorg Med Chem Lett, 2006).

What was measured:
[1] = biological target: DNA nucleotidylexotransferase (Homo sapiens, UniProt P04053); assay: Inhibition of human TdT
DNA polymerase beta = DNA polymerase beta (Homo sapiens, UniProt P06746); assay: Inhibition of DNA polymerase beta
[2] = biological target: T1, DNA polymerase alpha catalytic subunit (Homo sapiens, UniProt P09884); assay: Inhibition of DNA polymerase alpha
T1 sequence (P09884 whole entry): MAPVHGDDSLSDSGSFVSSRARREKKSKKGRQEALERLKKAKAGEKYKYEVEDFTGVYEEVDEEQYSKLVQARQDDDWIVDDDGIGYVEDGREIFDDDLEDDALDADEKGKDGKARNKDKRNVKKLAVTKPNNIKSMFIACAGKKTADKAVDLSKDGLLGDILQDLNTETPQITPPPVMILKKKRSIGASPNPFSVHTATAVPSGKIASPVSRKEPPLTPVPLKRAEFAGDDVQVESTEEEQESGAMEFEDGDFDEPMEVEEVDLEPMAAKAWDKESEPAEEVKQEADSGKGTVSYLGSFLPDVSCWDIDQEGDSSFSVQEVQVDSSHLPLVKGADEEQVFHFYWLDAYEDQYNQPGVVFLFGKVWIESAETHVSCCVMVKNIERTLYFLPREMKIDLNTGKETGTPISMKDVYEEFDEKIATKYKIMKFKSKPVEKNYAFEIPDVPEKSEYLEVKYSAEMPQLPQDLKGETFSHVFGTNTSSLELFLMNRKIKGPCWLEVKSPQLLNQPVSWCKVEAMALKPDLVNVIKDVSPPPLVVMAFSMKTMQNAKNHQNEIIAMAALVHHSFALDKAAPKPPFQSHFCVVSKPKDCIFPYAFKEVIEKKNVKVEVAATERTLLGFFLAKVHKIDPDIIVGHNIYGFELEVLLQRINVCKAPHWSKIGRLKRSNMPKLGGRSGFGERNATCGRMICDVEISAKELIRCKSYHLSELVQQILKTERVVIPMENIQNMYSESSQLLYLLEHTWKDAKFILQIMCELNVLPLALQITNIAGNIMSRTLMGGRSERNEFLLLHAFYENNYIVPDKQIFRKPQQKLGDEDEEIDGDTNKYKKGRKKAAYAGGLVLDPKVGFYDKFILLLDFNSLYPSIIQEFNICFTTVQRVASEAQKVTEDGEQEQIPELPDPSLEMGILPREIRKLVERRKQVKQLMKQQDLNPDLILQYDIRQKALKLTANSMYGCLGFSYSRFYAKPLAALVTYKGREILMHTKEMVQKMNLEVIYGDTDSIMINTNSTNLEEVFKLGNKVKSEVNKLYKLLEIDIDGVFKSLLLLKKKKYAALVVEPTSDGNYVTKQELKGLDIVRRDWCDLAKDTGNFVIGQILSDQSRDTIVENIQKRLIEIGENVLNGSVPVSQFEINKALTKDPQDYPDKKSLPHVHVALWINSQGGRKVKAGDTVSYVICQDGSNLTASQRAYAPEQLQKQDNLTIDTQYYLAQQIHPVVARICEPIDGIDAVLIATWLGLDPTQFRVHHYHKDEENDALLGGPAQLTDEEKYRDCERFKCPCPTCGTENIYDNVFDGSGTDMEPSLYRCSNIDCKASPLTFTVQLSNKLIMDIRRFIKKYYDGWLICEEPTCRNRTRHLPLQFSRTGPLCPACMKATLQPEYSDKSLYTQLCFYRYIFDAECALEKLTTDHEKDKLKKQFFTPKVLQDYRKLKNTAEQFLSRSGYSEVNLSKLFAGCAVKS

Chain of DNA nucleotidylexotransferase (P04053 whole entry): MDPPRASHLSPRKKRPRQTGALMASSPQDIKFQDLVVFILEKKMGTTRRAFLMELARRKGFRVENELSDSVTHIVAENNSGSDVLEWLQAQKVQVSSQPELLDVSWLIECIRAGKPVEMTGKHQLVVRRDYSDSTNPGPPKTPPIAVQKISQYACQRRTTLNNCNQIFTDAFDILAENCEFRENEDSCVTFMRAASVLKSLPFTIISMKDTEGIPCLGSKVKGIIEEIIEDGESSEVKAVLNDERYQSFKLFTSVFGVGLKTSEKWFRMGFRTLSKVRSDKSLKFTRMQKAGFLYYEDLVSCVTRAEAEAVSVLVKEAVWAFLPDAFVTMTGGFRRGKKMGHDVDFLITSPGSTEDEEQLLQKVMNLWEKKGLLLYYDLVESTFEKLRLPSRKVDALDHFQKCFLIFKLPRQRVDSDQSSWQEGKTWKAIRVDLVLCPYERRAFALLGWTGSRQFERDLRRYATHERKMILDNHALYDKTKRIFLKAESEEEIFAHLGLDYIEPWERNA

| SMILES | IC50 [1] [µM] | IC50 (DNA polymerase beta) [µM] | IC50 [2] [µM] |
| --- | --- | --- | --- |
| CCCCCCCCCCCCCCCCC1=C[C@H](C(=O)OC)[C@H]2C(=O)[C@]3(C(=O)OC)C[C@]3(CCCCCCCCCCCCCCCC)[C@H]2[C@H]1C(=O)OC | > 12.5 | > 12.5 | > 12.5 |
| CCCCCCCCCCCCCCCCC1=C[C@H](C(=O)NCCc2ccccc2)[C@H]2C(=O)C(C(=O)OC)=C(CCCCCCCCCCCCCCCC)[C@H]2[C@H]1C(=O)OC | > 12.5 | 8.7 | 6.9 |
| CCCCCCCCCCCCC(=O)/C=C1\[C@@H](O)[C@@H](C(=O)OC)[C@H](CC)N1Cc1ccccc1 | > 50 | 27.1 | 19.7 |
| CCCCCCCCCCCCC1=C[C@H](C(=O)O)[C@H]2C(=O)C(C(=O)OC)=C(CCCCCCCCCCCC)[C@H]2[C@H]1C(=O)OC | 8.6 | 2.3 | 1.9 |
| CCCCCCCCCCCCCCCCC1=C[C@H](C(=O)O)[C@H]2C(=O)C(C(=O)OC(C)C)=C(CCCCCCCCCCCCCCCC)[C@H]2[C@H]1C(=O)OC(C)C | 20 | 4.4 | 3.3 |
| CCC1=C[C@H](C(=O)O)[C@H]2C(=O)C(C(=O)OC)=C(CC)[C@H]2[C@H]1C(=O)OC | > 50 | > 50 | > 50 |
| CCCCCCCCCCCCC(=O)/C=C1\[C@H](O)[C@@H](C(=O)OC)[C@H](CC)N1CCc1ccccc1 | > 50 | 22 | 25 |
| CCCCCCCCCCCCC(=O)/C=C1\[C@H](O)[C@@H](C(=O)OC)[C@H](CC)N1Cc1ccccc1 | > 50 | 30 | 19.9 |
| CCCCCCCCCCCCCCCCC1=C[C@H](C(=O)OCC)[C@H]2C(=O)C(C(=O)OC)=C(CCCCCCCCCCCCCCCC)[C@H]2[C@@H]1C(=O)OC | 48.4 | 2.4 | 3.5 |
| CCCCCCCCCCCCCCCCC1=C[C@H](C(=O)O)[C@H]2C(=O)C(C(=O)OC)=C(CCCCCCCCCCCCCCCC)[C@H]2[C@H]1C(=O)OC | 2.5 | 3.2 | 1.9 |
| CCCCCCCCCCCCC(=O)/C=C1\[C@H](O)[C@@H](C(=O)OC)[C@H](c2ccccc2)N1CCc1c[nH]c2ccccc12 | > 50 | 10 | 21 |
| CCCCCCCCCCCCCCCCC1=C[C@H](C(=O)OCC)[C@H]2C(=O)C(C(=O)OC)=C(CCCCCCCCCCCCCCCC)[C@H]2[C@H]1C(=O)OC | 39.7 | 1.9 | 2.3 |
| CCCCCCCCCCCCCCCCC(=O)/C=C/C(=O)CC(=O)OC [E-ENEDIONE] |  | 8.8 | 3.7 |
| CCCCCCCCCCCCCCCC[C@]1(O)C=C[C@H](O)[C@H]1C(=O)OC [PLAKEVULIN A] |  | 179 | 66 |
| CCCCCCCCCCCCCCCC[C@]1(O)C=CC(=O)[C@H]1C(=O)OC [UNTENONE A] |  | 57 | 4.3 |
